Measurements published in patent US6849612B2, “Oligonucleotide modulation of cell adhesion” (ISIS Pharmaceuticals, Inc., priority 1993, dated 2005).
Strand notation (5' to 3'): a small letter for the sugar, then the base; units joined by * are phosphorothioate-linked, units joined directly phosphodiester-linked; [ ] holds rarer units or linkages, { } end groups; capitals alone tell only the bases. d = 2'-deoxy (DNA)

What was measured:
leukocyte migration = test: Leukocyte migration into carrageenan-soaked sponges in mice; type: in vivo, mouse; conditions: 3 mg/kg oral, after surgery, 6-8 hours later and at 21 hours; vs vehicle control
ICAM-1 [1] = test: ELISA screening for ICAM-1 expression in interleukin-1β-stimulated cells (HUVEC and A549); type: cell-based, human; conditions: interleukin-1β-stimulated cells, two cell lines (HUVEC, A549)
ICAM-1 [2] = test: Immunoprecipitation of 35S-labelled ICAM-1 from A549 cells; type: cell-based, human; conditions: 1 μM oligonucleotide, interleukin-1β
Method: The specificity of the antisense oligonucleotides ISIS 1570 and ISIS 1939 for ICAM-1 was evaluated by immunoprecipitation of ^35S-labelled proteins. A549 cells were grown to confluence in 25 cm^2 tissue culture flasks and treated with antisense oligonucleotides as described in Example 4. The cells were stimulated with interleukin-1β for 14 hours, washed with methionine-free DMEM plus 10% dialyzed fetal calf serum, and incubated for 1 hour in methionine-free medium containing 10% dialyzed fetal calf serum, 1 μM oligonucleotide and interleukin-1β as indicated. ^35S-Methionine/cysteine mixture (Tran^35S-label, purchased from ICN, Costa Mesa, Calif.) was added to the cells to an activity of 100 μCi/ml and the cells were incubated an additional 2 hours. Cellular proteins were extracted by incubation with 50 mM Tris-HCl pH 8.0, 150 mM NaCl, 1.0% NP-40, 0.5% deoxycholate and 2 mM EDTA (0.5 ml per well) at 4° C. for 30 minutes. The extracts were clarified by centrifugation at 18,000×g for 20 minutes. The supernatants were preadsorbed with 200 μl protein G-Sepharose beads (Bethesda Research Labs, Bethesda Md.) for 2 hours at 4° C., divided equally and incubated with either 5 μg ICAM-1 monoclonal antibody (purchased from AMAC Inc., Westbrook Me.) or HLA-A, B antibody (W6/32, produced by murine hybridoma cells obtained from the American Type Culture Collection, Bethesda, Md.) for 15 hours at 4° C. Immune complexes were trapped by incubation with 200 μl of a 50% suspension of protein G-Sepharose (v/v) for 2 hours at 4° C., washed 5 times with lysis buffer and resolved on an SDS-polyacrylamide gel. Proteins were detected by autoradiography.

[3] = test system: complementary DNA sequences (ICAM-1 target sites); test: Tm of oligonucleotide hybridized to complementary DNA; type: binding, human; conditions: 4 μM each strand, 100 mM Na+, 10 mM phosphate, 0.1 mM EDTA, pH 7.0; phosphorothioate vs complementary phosphodiester DNA
Description: The antisense oligonucleotides (synthesized as phosphorothioates) were hybridized to their complementary DNA sequences (synthesized as phosphodiesters). […] Tm's and free energies of duplex formation were obtained from fits of data to a two-state model with linear sloping baselines ([…]. and D. H. […] Results are averages of at least three experiments.

[4] = test system: adherence of HL-60 cells to human umbilical vein endothelial cells; test: Cell adherence assay: DMSO differentiated HL-60 cells to TNF treated HUVEC; type: cell-based; conditions: TNF-α stimulated HUVEC, Example 11; control 19%
Method: Target cells are grown as a monolayer in a multiwell plate, treated with oligonucleotide followed by cytokine. The adhering cells are then added to the monolayer cells and incubated for 30 to 60 minutes at 37° C. and washed to remove nonadhering cells. Cells adhering to the monolayer may be determined either by directly counting the adhering cells or prelabeling the cells with a radioisotope such as ^51Cr and quantitating the radioactivity associated with the monolayer as described. Dustin and Springer, J. Cell Biol. 1988, 107, 321-331. Antisense oligonucleotides may target either ICAM-1, VCAM-1 or ELAM-1 in the assay.
An example of the effects of antisense oligonucleotides targeting ICAM-1 mRNA on the adherence of DMSO differentiated HL-60 cells to tumor necrosis factor treated human umbilical vein endothelial cells is shown in FIG. 7. Human umbilical vein endothelial cells were grown to 80% confluence in 12 well plates. The cells were treated with 2 μM oligonucleotide diluted in Opti-MEM containing 8 μM DOTMA for 4 hours at 37° C. The medium was removed and replaced with fresh endothelial cell growth medium (EGM-UV) containing 2 μM of the indicated oligonucleotide and incubated 4 hours at 37° C. Tumor necrosis factor, 1 ng/ml, was added to cells as indicated and cells incubated for an additional 19 hours. The cells were washed once with EGM-UV and 1.6×10^6 HL-60 cells differentiated for 4 days with 1.3% DMSO added. The cells were allowed to attach for 1 hour at 37° C. and gently washed 4 times with Dulbecco's phosphate-buffered saline (D-PBS) warmed to 37° C. Adherent cells were detached from the monolayer by addition of 0.25 ml of cold (4EC) phosphate-buffered saline containing 5 mM EDTA and incubated on ice for 5 minutes. The number of cells removed by treatment with EDTA was determined by counting with a hemocytometer. Endothelial cells detached from the monolayer by EDTA treatment could easily be distinguished from HL-60 cells by morphological differences. In the absence of tumor necrosis factor, 3% of the HL-60 cells bound to the endothelial cells. Treatment of the endothelial cell monolayer with 1 ng/ml tumor necrosis factor increased the number of adhering cells to 59% of total cells added (FIG. 7).
Human umbilical vein endothelial (HUVEC) cells were grown and treated with oligonucleotides as in Example 4. Cells were treated with either ISIS 1939, ISIS 1940, or the control oligonucleotide ISIS 1821 for 4 hours, then stimulated with TNF-α for 20 hours. Basal HUVEC minimally bound HL-60 cells, while TNF-stimulated HUVEC bound 19% of the total cells added. Pretreatment of the HUVEC monolayer with 0.3 ìM ISIS 1939 reduced the adherence of HL-60 cells to basal levels, as shown in FIG. 11.

[5] = test system: C8161 human melanoma cells; test: Experimental metastasis assay of oligonucleotide-treated C8161 cells in athymic nude mice; type: in vivo
Method: To evaluate the role of ICAM-1 in metastasis, experimental metastasis assays were performed by injecting 1×10^5 C8161 cells into the lateral tail vein of athymic nude mice. […] Assoc. Cancer Res. 1990, 13, 353].
After 4 weeks, mice were sacrificed, organs were fixed in Bouin's fixative and metastatic lesions on lungs were scored with the aid of a dissecting microscope. Four-week-old female athymic nude mice (Harlan Sprague Dawley) were used. Animals were maintained under the guidelines of the NIH. Groups of 4-8 mice each were tested in experimental metastasis assays.
Treatment of C8161 cells with antisense oligonucleotides ISIS 1570 and ISIS 2302, complementary to ICAM-1, was performed in the presence of the cationic lipid, Lipofectin (Gibco/BRL, Gaithersburg, Md.). Antisense oligonucleotides were synthesized as described in Example 3. Cells were seeded in 60 mm tissue culture dishes at 10^6 cells/ml and incubated at 37 °C for 3 days, washed with OPTI-MEM (Gibco/BRL) 3 times and 100 μl of OPTI-MEM medium was added to each well. 0.5 μM oligonucleotide and 15 μg/ml lipofectin were mixed at room temperature for 15 minutes. 25 μl of the oligonucleotide-lipofectin mixture was added to the appropriate dishes and incubated at 37° C. for 4 hours. The oligonucleotide-lipofectin mixture was removed and replaced with DME-F12 medium containing 10% fetal calf serum. After 4 hours, 500 U/ml TNF-α was added to the appropriate wells and incubated for 18 hours at which time cells were removed from the plates, counted and injected into athymic nude mice.

ICAM-1 mRNA = test: Northern blot of ICAM-1 mRNA in C8161 cells; type: cell-based, human; conditions: Northern blot analysis
Method: (§1) ICAM-1 expression on the cell surface was measured by ELISA. Cells were treated with increasing concentrations of antisense oligonucleotides in the presence of 15 μg/ml Lipofectin for 4 hours at 37° C. ICAM-1 expression was induced by incubation with 5 ng/ml TNF-α for 16 hours. Cells were washed 3× in DPBS and fixed for 20 minutes in 2% formaldehyde. Cells were washed in DPBS, blocked with 2% BSA for 1 hour at 37° C. and incubated with ICAM-1 monoclonal antibody 84H10 (AMAC, Inc., Westbrook, Me.). Detection of bound antibody was determined by incubation with a biotinylated goat anti-mouse IgG followed by incubation with […] streptavidin and developed with chlorophenol red-β-D-galactopyranoside and quantified by absorbance at 575 nm. ICAM-1 mRNA levels were measured by Northern blot analysis.

ICAM-1 [6] = test: ELISA of ICAM-1 cell surface expression in C8161 human melanoma cells; type: cell-based; conditions: 15 μg/ml Lipofectin, 5 ng/ml TNF-α 16 hours
Method: as §1
The data were expressed as percentage of control activity, calculated as follows: (ICAM-1 expression for oligonucleotide-treated, cytokine-induced cells)−(basal ICAM-1 expression)/(ICAM-1 cytokine-induced expression)−(basal ICAM-1 expression)×100.

ICAM-1 [7] = test: ELISA of ICAM-1 expression in primary human keratinocytes; type: cell-based
Method: (§2) Expression of ICAM-1, VCAM-1 and ELAM-1 on the surface of cells can be quantitated using specific monoclonal antibodies in an ELISA. Cells are grown to confluence in 96 well microtiter plates. The cells are stimulated with either interleukin-1 or tumor necrosis factor for 4 to 8 hours to quantitate ELAM-1 and 8 to 24 hours to quantitate ICAM-1 and VCAM-1. Following the appropriate incubation time with the cytokine, the cells are gently washed three times with a buffered isotonic solution containing calcium and magnesium such as Dulbecco's phosphate buffered saline (D-PBS). The cells are then directly fixed on the microtiter plate with 1 to 2% paraformaldehyde diluted in D-PBS for 20 minutes at 25° C. The cells are washed again with D-PBS three times. Nonspecific binding sites on the microtiter plate are blocked with 2% bovine serum albumin in D-PBS for 1 hour at 37° C. Cells are incubated with the appropriate monoclonal antibody diluted in blocking solution for 1 hour at 37° C. Unbound antibody is removed by washing the cells three times with D-PBS. Antibody bound to the cells is detected by incubation with a 1:1000 dilution of biotinylated goat anti-mouse IgG (Bethesda Research Laboratories, Gaithersburg, Md.) in blocking solution for 1 hour at 37° C. Cells are washed three times with D-PBS and then incubated with a 1:1000 dilution of streptavidin conjugated to β-galactosidase (Bethesda Research Laboratories) for 1 hour at 37° C. The cells are washed three times with D-PBS for 5 minutes each. The amount of β-galactosidase bound to the specific monoclonal antibody is determined by developing the plate in a solution of 3.3 mM chlorophenolred-β-D-galactopyranoside, 50 mM sodium phosphate, 1.5 mM MgCl2; pH=7.2 for 2 to 15 minutes at 37° C. The concentration of the product is determined by measuring the absorbance at 575 nm in an ELISA microtiter plate reader. […]
(§3) Cells grown in 96-well plates were washed three times with Opti-MEM (GIBCO, Grand Island, N.Y.) prewarmed to 37° C. […] ICAM-1 expression was determined as described in Example 1. […]

ICAM-1 [8] = test: ELISA of ICAM-1 expression in A431 cells; type: cell-based; conditions: human epidermal carcinoma A431 cells
Method: as §2, §3

[9] = test system: human corneal donor buttons; test: Human corneal donor buttons stored in OPTISOL with ISIS 2302
Method: Eleven human corneal donor buttons were stored in TM OPTISOL™ for 8 days and used as the control group. Additional corneal buttons were used for the experimental group and were stored in OPTISOL™ with either 200 μg/ml ISIS 2302 (n=10) or 400 μg/ml ISIS 2302 (n=8). Endothelial cell density was evaluated by specular microscopy. After 8 days, all corneas were prepared for SEM and photographs were taken of endothelial and epithelial surfaces.

Row | Compound | reduction in mean leukocyte count (leukocyte migration) | inhibition of ICAM-1 expression, relative activity in words (ICAM-1 [1]) | ICAM-1 synthesis (ICAM-1 [2]) | Tm [3] | percentage of HL-60 cells adhering [4] | No. Lung Metastases per Mouse (Mean ± S.E.M.) ([5]; C8161 cells treated with 0.5 μM oligonucleotide + Lipofectin + TNF-α, Lipofectin + TNF-α 81 ± 8) | No. Lung Metastases per Mouse (Mean ± S.E.M.) ([5]; C8161 cells treated with 0.5 μM oligonucleotide + Lipofectin, no TNF-α, Lipofectin only 64 ± 13) | ICAM-1 mRNA levels (ICAM-1 mRNA) | cell surface expression of ICAM-1 (ICAM-1 [6]) | inhibition of ICAM-1 expression (ICAM-1 [7]) | inhibition of ICAM-1 expression (ICAM-1 [8]) | toxicity to stored human corneas [9] | endothelial cell density by specular microscopy ([9]; 200 or 400 μg/ml in OPTISOL, after 2 or 8 days of storage, vs control)
1 | COc1ccc2c(c1)c(CC(=O)O)c(C)n2C(=O)c1ccc(Cl)cc1 [indomethacin] | 79% | – | – | – | – | – | – | – | – | – | – | – | –
2 | ISIS 1940: P=S, human ICAM-1 3′-Untranslated (2975-2994), polyadenylation signal, SEQ ID NO 16, TTGAGAAAGCTTTATTAACT (antisense dT*dT*dG*dA*dG*dA*dA*dA*dG*dC*dT*dT*dT*dA*dT*dT*dA*dA*dC*dT) | – | did not inhibit ICAM-1 expression | did not significantly reduce ICAM-1 synthesis | < 50 °C | 9% | – | – | – | – | – | – | – | –
3 | ISIS 2302: P=S, human ICAM-1 3′-Untranslated (2114-2133), SEQ ID NO 22 (antisense dG*dC*dC*dC*dA*dA*dG*dC*dT*dG*dG*dC*dA*dT*dC*dC*dG*dT*dC*dA) | – | most active of the series, with activity comparable to that of ISIS 1939 | – | – | – | 31 ± 8 | 23 ± 6 | markedly reduced | decreased cell surface expression of ICAM-1 | inhibit ICAM-1 expression | inhibit ICAM-1 expression | not markedly toxic | no difference in endothelial cell density
